Test results published in patent publication US20200397894A1, “COMPOSITIONS AND METHODS FOR TREATING CANCER” (University of Virginia Patent Foundation, priority 2016, published 2020).
“And” between values parts separate entries of the source, which are not always exact repeats. Equal entries are not always repeated.

Columns and labels:
Format in all cases: cell-based, human
DM93 cells = test: BrdU staining and flow cytometry (rereplication); settings: DM93, pevonedistat
Method: The effects of pevonedistat and/or silencing of cell cycle-associated proteins on cell cycle distribution or rereplication were assessed by flow cytometry according to the manufacturer's instructions. Different melanoma lines were transfected with si-GL2, si-CDT2, si-CDT1, si-SET8, si-p21, or si-geminin for a time ranging from 24 to 96 hours. At the end of treatment, cells were pulsed with BrdU (10 nM) for 1 hour in the dark prior to harvesting. Cells were washed with PBS and staining solution before the fixation and permeabilization steps according to the manufacturer's instructions. Cells were subsequently stained with anti-BrdU antibody solution for 20 minutes at room temperature, washed, and stained with 7-AAD solution for 30 minutes at 4° C. The cells were resuspended in 1 ml of staining buffer and kept overnight at 4° C. before analysis. Samples were analyzed on a FFACSCAN™ (Becton, Dickinson and Company, Franklin Lakes, N.J., United States of America), and different phases of the cell cycle were determined using FLOWJO® (FLOWJO, LLC, Ashland, Oreg., United States of America) and ModFit (Verity Software House, Topsham, Me., United States of America) software.

[1] = test system: DM331 and SK-MEL-24 cells from PLX4720-resistant tumors; test: In vitro sensitivity of cells extracted ex vivo from PLX4720-resistant tumors; settings: DM331 and SK-MEL-24 cells extracted ex vivo
Method: Proliferation and viability of cultured cells was measured by CELLTITER96® Non-radioactive Cell Proliferation Assay (Promega Corporation; Madison, Wis., United States of America). Briefly, various wild type and mutant BRAF melanoma cells were seeded in 96 well plates and treated with pevonedistat, vemurafenib, or the combination pevonedistat and vemurafenib at various concentrations. Control cells were treated with DMSO. 96 hours following treatment, cells were stained with the dye solution according to the manufacturer's protocol. Absorbance was recorded at 570 nm and growth curves were established. […] Cells were counted every 24 hours using a COUNTESS™ Automated Cell Counter (INVITROGEN™, Carlsbad, Calif., United States of America), and harvested at the indicated times for PI staining and FACS analysis (cell cycle profile) or for immunoblotting.
The effects of pevonedistat, vemurafenib, and/or silencing of various cell cycle-associated proteins by siRNA on cell cycle distribution and rereplication were assessed by propidium iodide staining and flow cytometry of asynchronous melanoma cultures. […]

Cal27 cells = test: Clonogenic survival assay for radiation sensitivity; set-up: SF4: unit not given here; settings: for SF4: S 0.1; for SER (sensitivity enhancement ratio): at 10% survival
Method: (§1) The effect of pevonedistat treatment or transient silencing of CDT2, geminin, or EMI1 on cell proliferation or on radiation sensitivity was tested using clonogenic survival assays. Cells were transfected with the appropriate si-RNA 48 hours prior to seeding. Cells were then counted using COUNTESS™ Automated Cell Counter (INVITROGEN™, Carlsbad, Calif., United States of America) and were seeded at 15,000 cells/plate in 60 mm dishes. Cells were irradiated 24 hours after seeding with various doses and were cultured for 7-10 days. Once colonies reached the appropriate size (>50 cells each), cells were washed twice with cold PBS, fixed in cold 100% methanol for 10 minutes, and stained with crystal violet (0.5%) for 10 minutes. The plates were washed, dried, and imaged using IMAGE LAB™ software (BioRad Laboratories, Inc., Hercules, Calif., United States of America). QUANTITY ONE® software (BioRad Laboratories, Inc., Hercules, Calif., United States of America) was used to quantify the number of colonies and survival curves were established based on the linear quadratic model, using the formula S=e^−αD-βD2; where S represents the surviving fraction and D the dose of irradiation. Results are represented as mean standard deviation (SD) of three independent experiments normalized to the corresponding non-irradiated plates for each group. When the effect of pevonedistat on cell radiosensitivity was tested, cells were seeded at 15,000 cells/60 mm plate and allowed to adhere for 4-6 hours. Pevonedistat was then added upon cell adherence at varying concentrations and cells were irradiated the following day. The duration of the experiment and the stopping procedure were as described above.

FaDu cells = test: as above; set-up: SF4: unit not given here; settings: for SF4: S 0.1; for SER (sensitivity enhancement ratio): at 10% survival
Method: as §1

[2] = Cal27, 20 nM pevonedistat 24 hours prior to irradiation
[3] = Cal27, 40 nM pevonedistat 24 hours prior to irradiation
[4] = Cal27, 60 nM pevonedistat 24 hours prior to irradiation
[5] = Cal27, 80 nM pevonedistat 24 hours prior to irradiation
[6] = 10 nM pevonedistat 24 hours prior to irradiation
[7] = 20 nM pevonedistat 24 hours prior to irradiation
[8] = 40 nM pevonedistat 24 hours prior to irradiation
[9] = 60 nM pevonedistat 24 hours prior to irradiation

NS(=O)(=O)OCC1CC(n2ccc3c(NC4CCc5ccccc54)ncnc32)CC1O [pevonedistat, ((1S,2S,4R)-4-(4-((1S)-2,3-Dihydro-H-inden-1-ylamino)-7H-pyrrolo(2,3-d)pyrimidin-7-yl)-2-hydroxycyclopentyl)methyl sulphamate]
cells with rereplication within the same cell cycle (BrdU labeling) (DM93 cells; 24 hours): 17.3%
cells with rereplication within the same cell cycle (BrdU labeling) (DM93 cells; 48 hours): 61.7%
sensitivity in vitro of cells from PLX4720-resistant tumors [1]: sensitive to pevonedistat-induced rereplication and inhibition
α (linear quadratic model) (Cal27 cells; [2]): 1.50 × 10^−13
β (linear quadratic model) (Cal27 cells; [2]): 0.049
SF4 (Cal27 cells; Cal27, 20 nM pevonedistat): 6.893
SER (sensitivity enhancement ratio) (Cal27 cells; Cal27, 20 nM pevonedistat): 1.171
α (linear quadratic model) (Cal27 cells; [3]): 0.108
β (linear quadratic model) (Cal27 cells; [3]): 0.052
SF4 (Cal27 cells; Cal27, 40 nM pevonedistat): 5.692
SER (sensitivity enhancement ratio) (Cal27 cells; Cal27, 40 nM pevonedistat): 1.419
α (linear quadratic model) (Cal27 cells; [4]): 0.471
β (linear quadratic model) (Cal27 cells; [4]): 0.009
SF4 (Cal27 cells; Cal27, 60 nM pevonedistat): 4.457
SER (sensitivity enhancement ratio) (Cal27 cells; Cal27, 60 nM pevonedistat): 1.812
α (linear quadratic model) (Cal27 cells; [5]): 0.906
β (linear quadratic model) (Cal27 cells; [5]): −0.020
SF4 (Cal27 cells; Cal27, 80 nM pevonedistat): 2.702
SER (sensitivity enhancement ratio) (Cal27 cells; Cal27, 80 nM pevonedistat): 2.702
α (linear quadratic model) (FaDu cells; [6]): 0.105
β (linear quadratic model) (FaDu cells; [6]): 0.017
SF4 (FaDu cells; 10 nM pevonedistat): 8.979
SER (sensitivity enhancement ratio) (FaDu cells; 10 nM pevonedistat): 1.055
α (linear quadratic model) (FaDu cells; [7]): 0.242
β (linear quadratic model) (FaDu cells; [7]): 0.006
SF4 (FaDu cells; 20 nM pevonedistat): 7.987
SER (sensitivity enhancement ratio) (FaDu cells; 20 nM pevonedistat): 1.186
α (linear quadratic model) (FaDu cells; [8]): 0.241
β (linear quadratic model) (FaDu cells; [8]): 0.014
SF4 (FaDu cells; 40 nM pevonedistat): 6.830
SER (sensitivity enhancement ratio) (FaDu cells; 40 nM pevonedistat): 1.387
α (linear quadratic model) (FaDu cells; [9]): 0.282
β (linear quadratic model) (FaDu cells; [9]): 0.013
SF4 (FaDu cells; 60 nM pevonedistat): 6.328
SER (sensitivity enhancement ratio) (FaDu cells; 60 nM pevonedistat): 1.49 and 1.497
